Reference: PubChem BioAssay AID1421 (Emory University Molecular Libraries Screening Center, 2008)
“And” between values parts separate entries of the source, which are not always exact repeats. Equal entries are not always repeated.

Each molecule was assayed against Prostaglandin E2 receptor EP2 subtype (Homo sapiens) (UniProt P43116) (assay: compounds shifting PGE2 potency at EP2 – cell-based, human EP2, PGE2 EC50 shift, dose response (AID 1421)). Conditions: EP2-expressing cells, PGE2 EC50 shift by compound; measured here: PGE2 EC50 at 6.7 uM compound.
Chain of Prostaglandin E2 receptor EP2 subtype (Homo sapiens) (P43116 whole entry, looked up): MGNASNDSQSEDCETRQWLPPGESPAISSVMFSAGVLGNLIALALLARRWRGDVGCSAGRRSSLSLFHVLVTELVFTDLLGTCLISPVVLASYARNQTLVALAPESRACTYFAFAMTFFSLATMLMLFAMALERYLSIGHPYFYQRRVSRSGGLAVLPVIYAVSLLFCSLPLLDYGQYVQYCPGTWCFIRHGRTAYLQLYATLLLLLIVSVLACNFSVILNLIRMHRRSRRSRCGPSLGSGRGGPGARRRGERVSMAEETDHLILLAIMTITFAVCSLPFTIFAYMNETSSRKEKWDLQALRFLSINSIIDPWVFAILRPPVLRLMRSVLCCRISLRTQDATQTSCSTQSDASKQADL
`c1cncc(-c2nc(N3CCOCC3)c3c4c(sc3n2)CCC4)c1` showed a PGE2 EC50 with compound of 1.15 nM.
`COc1cc(/C=C/c2ccc3cccc([N+](=O)[O-])c3n2)ccc1OCC(=O)O` showed a PGE2 EC50 with compound of 1.64 nM.
`CCOC(=O)n1c(=O)n(Cc2ccc(Cl)c(Cl)c2)c2ccccc21` gave a PGE2 EC50 with compound of 0.9 nM.
For `COC(=O)c1c(-c2ccc(F)cc2)csc1NC(=O)C1CCCO1` (stereo unspecified), the PGE2 EC50 with compound was 2.48 nM.
For `Cc1ccc(C(=O)N2N=C(c3ccccc3)CC2(O)C(F)(F)F)o1` (stereo unspecified), the PGE2 EC50 with compound was 1.62 nM.
`Cc1nc2c(-c3ccccc3)c(C)nn2c(C)c1CCC(=O)N1CCOCC1` gave a PGE2 EC50 with compound of 1.09 nM.
For `CC(C)C(=O)c1cc2c(cc1NC(=O)c1ccccc1)OCCO2`, the PGE2 EC50 with compound was 0.88 nM.
`COc1ccc(-c2nc3c(c(=O)[nH]c(=O)n3Cc3ccccc3)n2Cc2ccccc2)cc1` showed a PGE2 EC50 with compound of 0.55 nM.
For `COc1ccc(C(=O)NCC(=O)n2nc(C)cc2C)cc1OC`, the PGE2 EC50 with compound was 1.6 nM.
`CCOc1ccc(OCC)c(NC(=O)CN2CCN(c3cc(C)ccc3C)CC2)c1` gave a PGE2 EC50 with compound of 0.8 nM.
`CC(Sc1nnc(-c2cccs2)n1Cc1ccccc1)C(=O)NCc1ccc2c(c1)OCO2` (stereo unspecified) gave a PGE2 EC50 with compound of 0.62 nM.
For `CN=C1CC(SC)=C1c1ccc(C)cc1`, the PGE2 EC50 with compound was 0.84 nM.
With `Cc1cccc(C(=O)Nc2cccc(OCC(=O)O)c2)c1` the PGE2 EC50 with compound was 6.72 nM.
In the case of `COCCCN(C(=O)c1ccco1)c1nc(-c2cc(OC)ccc2OC)cs1`, the PGE2 EC50 with compound is reported as 0.9 nM.
Work on `CCOC(=O)Cn1c(=S)[nH]c2c(oc3ccc(Cl)cc32)c1=O` yielded a PGE2 EC50 with compound of 2.77 nM.
`Nc1ccccc1CCCC(=O)O` gave a PGE2 EC50 with compound of 0.98 nM.
For `Cc1ccc2c(c1)N(Cc1cccc(Cl)c1)C(=O)c1cccnc1O2`, the PGE2 EC50 with compound was 0.95 nM.
For `COc1ccc(C2CC(C(F)(F)F)n3nc(C(N)=O)c(Cl)c3N2)cc1OC` (stereo unspecified), the PGE2 EC50 with compound was 0.71 nM.
Work on `CCOc1cc(-c2noc(-c3ccncc3)n2)cc(Br)c1OC` yielded a PGE2 EC50 with compound of 0.84 nM.
`O=C(O)COc1cccc(NC(=O)c2ccccc2)c1` showed a PGE2 EC50 with compound of 2.83 nM.
`O=C(Nc1ccccc1N1CCOCC1)c1ccc2ccccc2n1` gave a PGE2 EC50 with compound of 0.82 nM.
Work on `O=C(c1ccc2c(c1)OCO2)N(Cc1cccs1)C1(C(=O)NC2CCCCC2)CCCCC1` yielded a PGE2 EC50 with compound of 1.08 nM.
`Cc1ccc(-c2nn3c(C)nnc3s2)cc1NCc1c(F)cccc1Cl` showed a PGE2 EC50 with compound of 0.91 nM.
With `CCC(C)N(C)C(=O)c1cc2ccccc2c(-c2ccccc2Cl)n1` (stereo unspecified) the PGE2 EC50 with compound was 0.93 nM and 1.18 nM.
For `Cn1c(=O)c(NC2CCCCC2)c2c3c(cccc31)C(=O)c1ccccc1-2`, the PGE2 EC50 with compound was 0.55 nM.
`C[C@H](CN(C)C)C(=O)c1ccccc1C(=O)O` showed a PGE2 EC50 with compound of 1.41 nM.
Molecule `Cc1nn(Cc2c(Cl)cccc2Cl)c(C)c1C(=O)NCc1ccc(C)n1C` has a PGE2 EC50 with compound of 1.18 nM.
Work on `Cc1cccc(/N=C/c2c(O)ccc3oc4c(c23)CCCC4)n1` yielded a PGE2 EC50 with compound of 1.04 nM.
In the case of `Cc1ccc(-n2nc3c(c2NC(=O)c2ccc(Br)o2)CSC3)c(C)c1`, the PGE2 EC50 with compound is reported as 1.36 nM.
For `COc1ccc(-c2noc(-c3ccccc3C(=O)Nc3cccnc3)n2)cc1`, the PGE2 EC50 with compound was 1.02 nM.
In the case of `CC(C)OC(=O)CSc1nc(Cc2ccccc2)nc2ccccc12`, the PGE2 EC50 with compound is reported as 1.14 nM.
In the case of `Nc1ccc(Br)cc1C(=O)c1ccccc1`, the PGE2 EC50 with compound is reported as 0.43 nM.
`CC(=O)Nc1sc2c(c1C(c1cccs1)N1CCOCC1)CCCC2` (stereo unspecified) showed a PGE2 EC50 with compound of 0.99 nM.
In the case of `CC(=O)N(Cc1cccs1)Cc1cc2ccc(C)c(C)c2nc1Cl`, the PGE2 EC50 with compound is reported as 1.01 nM.
Work on `CC(=O)O[C@H]1C[C@@H](OC(C)=O)C(C)(C)C2C[C@@H](OC(C)=O)[C@]3(C)C([C@H](OC(C)=O)C[C@@]4(C)[C@H](c5ccoc5)OC(=O)[C@H]5O[C@]543)[C@]21C` (stereo partly specified) yielded a PGE2 EC50 with compound of 1.05 nM.
In the case of `Cc1ccnc(NS(=O)(=O)c2cccs2)c1`, the PGE2 EC50 with compound is reported as 1.8 nM.
With `Cc1ccc(C)c(NC(=S)N(Cc2ccco2)C(C)c2cccs2)c1` (stereo unspecified) the PGE2 EC50 with compound was 0.7 nM.
With `CCOC(=O)C1=CN(CC2CCCO2)C=C(C(=O)OCC)C1c1ccccc1C(F)(F)F` (stereo unspecified) the PGE2 EC50 with compound was 1.3 nM.
`COc1ccc(-c2cc(-c3n[nH]c(=S)n3-c3cccc4ccccc34)[nH]n2)cc1` showed a PGE2 EC50 with compound of 1.74 nM.
With `Fc1ccccc1Nc1nc2c(s1)CCc1ccccc1-2` the PGE2 EC50 with compound was 1.03 nM.
For `Cc1cccc(C)c1N1CCN(c2ccc3nnc(C(F)(F)F)n3n2)CC1`, the PGE2 EC50 with compound was 0.52 nM.
For `COc1c(Cl)cc(Cl)cc1C(=O)n1nc(C)cc1C`, the PGE2 EC50 with compound was 1.14 nM.
Molecule `Cc1ccc2nc(SCC(=O)NCc3ccco3)c(C)cc2c1` has a PGE2 EC50 with compound of 0.76 nM.
Work on `CCc1cc(-c2[nH]ncc2-c2ccc3c(c2)OCO3)c(O)cc1O` yielded a PGE2 EC50 with compound of 1.31 nM.
`Cc1cc(C)c2nc(N3CCCN(C(=O)c4ccco4)CC3)c(C#N)cc2c1` gave a PGE2 EC50 with compound of 0.64 nM.
For `O=C(O)CCSc1ccc2ccccc2n1`, the PGE2 EC50 with compound was 2.87 nM and 2.98 nM.
With `Cc1cccc(/C=C/c2nc3ccccc3c(=O)n2Cc2ccccc2)c1` the PGE2 EC50 with compound was 2.67 nM.
With `O=C(c1ccc(Cl)cc1)c1oc2ccccc2c1CS(=O)(=O)c1ccccc1` the PGE2 EC50 with compound was 2.88 nM.
For `CCOC(=O)C1=C(CN2CCc3ccccc32)NC(=O)NC1c1ccc(Cl)cc1` (stereo unspecified), the PGE2 EC50 with compound was 1.21 nM.
Work on `COc1cc2c(cc1OC)CN(c1ccc(-c3ccccc3OC)nn1)CC2` yielded a PGE2 EC50 with compound of 1.64 nM.
Molecule `Cc1cccc(Cn2c(Cc3ccccc3)nc3ccccc32)c1` has a PGE2 EC50 with compound of 0.71 nM.
`CCn1nnnc1SCC(=O)Nc1cccc(C)n1` was tested, and the PGE2 EC50 with compound was 1.44 nM.
Molecule `Cc1cccc(-n2c(CCn3nc(C)c([N+](=O)[O-])c3C)n[nH]c2=S)c1` has a PGE2 EC50 with compound of 2.79 nM.
For `CC[C@H](C)C(=O)O[C@H]1C[C@@H](C)C=C2C=C[C@H](C)[C@H](CC[C@@H]3C[C@@H](O)CC(=O)O3)[C@H]21`, the PGE2 EC50 with compound was 0.97 nM.
In the case of `C=CCSc1nc2ccccc2c(=O)n1Cc1ccco1`, the PGE2 EC50 with compound is reported as 0.91 nM.
With `CCc1ccc2nc(-c3cccc(C)c3)nc(SCC(=O)NCC3CCCO3)c2c1` (stereo unspecified) the PGE2 EC50 with compound was 2.64 nM.
